Source: ChEMBL document CHEMBL2074141, “Comparison of lactate transport in astroglial cells and monocarboxylate transporter 1 (MCT 1) expressing Xenopus laevis oocytes. Expression of two different monocarboxylate transporters in astroglial cells and neurons” (J Biol Chem, 1997)

Assays:
Assay type in all cases: functional, cell-based
Parameters in all cases: scale not given: the % may be the effect or the level left
Conditions in all cases: Oocyte
[1] = target: T1, Monocarboxylate transporter 1 (Rattus norvegicus) (UniProt P53987); assay: TP_TRANSPORTER: inhibition of lactate uptake (Lactate:0.1mM, 4-CIN:5mM, preincubation with aminoxyacetate) in Xenopus laevis oocytes
T1 sequence (whole entry): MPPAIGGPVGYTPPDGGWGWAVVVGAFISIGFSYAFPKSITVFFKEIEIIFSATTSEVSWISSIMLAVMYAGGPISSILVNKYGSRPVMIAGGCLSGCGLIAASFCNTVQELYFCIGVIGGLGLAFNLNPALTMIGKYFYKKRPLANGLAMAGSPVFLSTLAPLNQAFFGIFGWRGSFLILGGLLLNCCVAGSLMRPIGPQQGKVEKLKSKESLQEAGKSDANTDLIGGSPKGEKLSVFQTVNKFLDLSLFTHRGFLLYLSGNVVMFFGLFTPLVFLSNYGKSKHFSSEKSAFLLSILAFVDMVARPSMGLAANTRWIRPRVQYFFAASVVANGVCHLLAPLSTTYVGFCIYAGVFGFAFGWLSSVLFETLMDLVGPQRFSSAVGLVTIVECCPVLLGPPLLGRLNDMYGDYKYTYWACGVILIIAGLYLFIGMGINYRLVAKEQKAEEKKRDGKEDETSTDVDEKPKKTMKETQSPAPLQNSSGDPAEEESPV

[2] = target: T1, Monocarboxylate transporter 1 (Rattus norvegicus); assay: TP_TRANSPORTER: inhibition of lactate uptake (Lactate:0.1mM, alpha-Ketoisocaproate:5mM, preincubation with aminoxyacetate) in Xenopus laevis oocytes
[3] = target: T1, Monocarboxylate transporter 1 (Rattus norvegicus); assay: TP_TRANSPORTER: inhibition of lactate uptake (Lactate:0.1mM, Pyruvate:1mM, preincubation with aminoxyacetate) in Xenopus laevis oocytes
[4] = target: Monocarboxylate transporter 1 (Rattus norvegicus) (UniProt P53987); assay: TP_TRANSPORTER: inhibition of lactate uptake (Lactate:0.1mM, pCMBS:1mM, preincubation with aminoxyacetate) in Xenopus laevis oocytes
[5] = target: T1, Monocarboxylate transporter 1 (Rattus norvegicus); assay: TP_TRANSPORTER: inhibition of lactate uptake (Lactate:0.1mM, D,L-3-Hydroxybutyrate:50mM, preincubation with aminoxyacetate) in Xenopus laevis oocytes
[6] = target: T1, Monocarboxylate transporter 1 (Rattus norvegicus); assay: TP_TRANSPORTER: inhibition of lactate uptake (Lactate:0.1mM, Acetoacetate:50mM, preincubation with aminoxyacetate) in Xenopus laevis oocytes

N#C/C(=C\c1ccc(O)cc1)C(=O)O was tested. Which Activity [1] did it give?
Its Activity is 9%.

CC(C)CC(=O)C(=O)O was tested. Which Activity [2] did it give?
The Activity was 13%.

For CC(=O)C(=O)O, which Activity [3] is on record?
Its Activity is 23%.

With p-Chloromercuribenzenesulfonate as the compound, how does the Activity [4] read?
Its Activity is 18%.

CC(O)CC(=O)O (racemic) was tested. Which Activity [5] did it give?
Its Activity is 7%.

With CC(=O)CC(=O)O as the compound, how does the Activity [6] read?
Its Activity is 13%.
